Source: patent US7563787B2, “Substituted pyrazole compounds” (Miikana Therapeutics, Inc., priority 2005, dated 2009)

How the values were obtained:
[1] = target: T1, recombinant Aurora A (Homo sapiens, UniProt O14965); test: Aurora A (Aurora 2) Inhibition Assay (Z'-Lyte); format: biochemical; details: 100 μM compound; ATP 10 μM; 1 h
T1 construct: purchased Upstate, Lake Placid, N.Y
T1 sequence (O14965 1-403): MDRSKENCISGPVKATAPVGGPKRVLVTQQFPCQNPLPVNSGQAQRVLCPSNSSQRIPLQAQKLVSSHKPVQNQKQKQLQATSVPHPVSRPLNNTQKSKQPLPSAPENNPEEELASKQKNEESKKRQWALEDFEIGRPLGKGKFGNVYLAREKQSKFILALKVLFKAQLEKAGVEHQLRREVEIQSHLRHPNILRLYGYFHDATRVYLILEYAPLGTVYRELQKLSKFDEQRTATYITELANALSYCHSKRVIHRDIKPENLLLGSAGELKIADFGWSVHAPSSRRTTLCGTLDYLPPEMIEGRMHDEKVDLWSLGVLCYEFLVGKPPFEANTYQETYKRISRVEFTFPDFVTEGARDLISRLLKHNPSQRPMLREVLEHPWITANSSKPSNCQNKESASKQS

[2] = target: T2, Aurora B kinase (Homo sapiens, UniProt Q96GD4); test: Aurora B (Aurora 1) Inhibition Assay; format: biochemical; details: 100 μM compound; ATP 50 μM; 16 h
T2 construct: purchased BPS Biosciences, San Diego, Calif
Experimental: Assays for Aurora B kinase inhibition were carried out similarly to those for Aurora A kinase (see above) with the following modifications. Aurora B kinase (BPS Biosciences, San Diego, Calif.) was used as the enzyme, at a concentration was 2.5 μg/mL. The ATP concentration was 50 μM, and the kinase reaction was allowed to proceed for 16 h. Sodium orthovanadate (20 μM) was added to the buffer to inhibit contaminating phosphatases.

[3] = test system: HCT-116 cell growth; test: Whole Cell Cytotoxicity Assay: Sulforhodamine B; format: cell-based, Human; details: Homo sapiens, HCT-116; 100 μM compound; 96 hours; SRB staining
[4] = target: T3, FGFR2 (Homo sapiens, UniProt P21802); test: Kinase Selectivity Assay; format: biochemical; details: read-out: Percent Inhibition at 1 μM; note: ATP at apparent Km or 100 µM
T3 construct: full-length enzymes or catalytically active fragments; purchased Invitrogen
T3 sequence (P21802 22-821): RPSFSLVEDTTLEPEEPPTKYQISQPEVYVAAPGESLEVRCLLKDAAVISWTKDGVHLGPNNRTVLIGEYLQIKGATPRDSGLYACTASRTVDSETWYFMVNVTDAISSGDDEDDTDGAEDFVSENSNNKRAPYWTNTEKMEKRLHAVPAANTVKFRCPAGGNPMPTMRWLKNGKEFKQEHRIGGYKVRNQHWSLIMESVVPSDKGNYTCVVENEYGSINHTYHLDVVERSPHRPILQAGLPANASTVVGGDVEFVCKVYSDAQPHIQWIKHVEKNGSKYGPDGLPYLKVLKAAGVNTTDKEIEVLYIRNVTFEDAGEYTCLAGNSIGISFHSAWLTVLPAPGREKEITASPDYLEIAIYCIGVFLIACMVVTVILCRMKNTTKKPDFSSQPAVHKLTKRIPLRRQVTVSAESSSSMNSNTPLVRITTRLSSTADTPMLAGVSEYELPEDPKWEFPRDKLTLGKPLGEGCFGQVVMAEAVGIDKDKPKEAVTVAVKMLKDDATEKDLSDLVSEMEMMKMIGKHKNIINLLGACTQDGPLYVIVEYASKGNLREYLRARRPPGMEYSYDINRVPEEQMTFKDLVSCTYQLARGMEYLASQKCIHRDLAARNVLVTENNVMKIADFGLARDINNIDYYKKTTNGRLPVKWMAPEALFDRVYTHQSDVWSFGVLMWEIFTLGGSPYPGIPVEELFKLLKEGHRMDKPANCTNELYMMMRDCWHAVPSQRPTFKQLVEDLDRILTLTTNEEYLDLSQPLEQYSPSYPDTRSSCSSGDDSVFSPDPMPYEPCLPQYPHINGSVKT
Experimental: (§1) Compounds were assayed for inhibitory activity against a panel of different kinase enzymes at a concentration of 1 μM. Where appropriate, full-length enzymes or catalytically active fragments, with N-terminal or C-terminal His- or GST-tags, were used (Invitrogen, Carlsbad, Calif.). Test compounds were initially diluted to 100× test concentration in 100% DMSO. This 100× concentration was then diluted to a 4× working concentration in Kinase Buffer (50 mM HEPES pH 7.5, 0.01% Brij-35, 10 mM MgCl2, 1 mM EGTA) and 2.5 μL was then added to a low volume NBS, 384-well plate (Corning, Corning, N.Y.). Five μL of a 2× peptide/kinase mixture (Invitrogen, Carlsbad, Calif.), as appropriate (listed in Table 3), was then added and the reaction was then initiated by addition of 2.5 μL of a 4× working concentration of ATP in Kinase Buffer.

[5] = target: T4, FLT3 (Homo sapiens, UniProt P36888); test: Kinase Selectivity Assay; format: biochemical; details: read-out: Percent Inhibition at 1 μM; note: ATP at apparent Km or 100 µM
T4 construct: full-length enzymes or catalytically active fragments; purchased Invitrogen
T4 sequence (P36888 27-993): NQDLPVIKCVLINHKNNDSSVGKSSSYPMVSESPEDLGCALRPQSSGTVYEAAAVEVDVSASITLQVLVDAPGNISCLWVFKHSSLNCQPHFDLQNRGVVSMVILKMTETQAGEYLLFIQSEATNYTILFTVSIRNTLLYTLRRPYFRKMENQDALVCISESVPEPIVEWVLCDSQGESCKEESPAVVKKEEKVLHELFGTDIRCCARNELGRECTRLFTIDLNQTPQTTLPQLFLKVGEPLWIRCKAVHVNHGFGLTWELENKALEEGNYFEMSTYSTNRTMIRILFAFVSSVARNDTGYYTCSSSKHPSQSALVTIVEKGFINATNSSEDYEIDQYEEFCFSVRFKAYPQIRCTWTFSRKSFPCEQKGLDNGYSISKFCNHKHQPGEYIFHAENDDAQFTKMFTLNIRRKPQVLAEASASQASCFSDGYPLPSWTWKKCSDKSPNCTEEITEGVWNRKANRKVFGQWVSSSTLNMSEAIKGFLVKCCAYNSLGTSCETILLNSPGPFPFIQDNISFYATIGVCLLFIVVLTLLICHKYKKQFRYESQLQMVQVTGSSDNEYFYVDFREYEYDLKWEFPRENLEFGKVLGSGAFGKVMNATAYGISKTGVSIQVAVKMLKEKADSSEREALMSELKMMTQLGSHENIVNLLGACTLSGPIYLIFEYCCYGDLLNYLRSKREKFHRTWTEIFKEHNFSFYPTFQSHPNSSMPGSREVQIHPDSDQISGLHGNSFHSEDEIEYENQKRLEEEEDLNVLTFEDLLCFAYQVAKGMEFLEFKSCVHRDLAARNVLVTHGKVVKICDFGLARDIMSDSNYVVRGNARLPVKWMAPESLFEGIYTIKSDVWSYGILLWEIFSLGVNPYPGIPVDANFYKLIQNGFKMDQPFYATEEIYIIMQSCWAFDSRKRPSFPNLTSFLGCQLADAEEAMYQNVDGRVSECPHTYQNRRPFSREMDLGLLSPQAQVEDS
Experimental: as §1

[6] = target: T5, MAP2K1 (MEK1) (Homo sapiens, UniProt Q02750); test: Kinase Selectivity Assay; format: biochemical; details: read-out: Percent Inhibition at 1 μM; note: ATP at apparent Km or 100 µM
T5 construct: full-length enzymes or catalytically active fragments; purchased Invitrogen
T5 sequence (Q02750 whole entry, the tested form may be a part): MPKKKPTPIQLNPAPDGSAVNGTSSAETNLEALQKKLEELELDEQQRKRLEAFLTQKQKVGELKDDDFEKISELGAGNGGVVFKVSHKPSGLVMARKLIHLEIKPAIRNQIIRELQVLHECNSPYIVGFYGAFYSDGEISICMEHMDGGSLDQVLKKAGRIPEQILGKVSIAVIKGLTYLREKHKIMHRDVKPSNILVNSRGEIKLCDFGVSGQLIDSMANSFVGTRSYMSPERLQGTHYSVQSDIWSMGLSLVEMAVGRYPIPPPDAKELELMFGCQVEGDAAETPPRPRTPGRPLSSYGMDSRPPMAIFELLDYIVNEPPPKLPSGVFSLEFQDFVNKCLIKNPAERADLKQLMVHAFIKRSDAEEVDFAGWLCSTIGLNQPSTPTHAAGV
Experimental: as §1

[7] = target: T6, ROS1 (Homo sapiens, UniProt P08922); test: Kinase Selectivity Assay; format: biochemical; details: read-out: Percent Inhibition at 1 μM; note: ATP at apparent Km or 100 µM
T6 construct: full-length enzymes or catalytically active fragments; purchased Invitrogen
T6 sequence (P08922 28-2347): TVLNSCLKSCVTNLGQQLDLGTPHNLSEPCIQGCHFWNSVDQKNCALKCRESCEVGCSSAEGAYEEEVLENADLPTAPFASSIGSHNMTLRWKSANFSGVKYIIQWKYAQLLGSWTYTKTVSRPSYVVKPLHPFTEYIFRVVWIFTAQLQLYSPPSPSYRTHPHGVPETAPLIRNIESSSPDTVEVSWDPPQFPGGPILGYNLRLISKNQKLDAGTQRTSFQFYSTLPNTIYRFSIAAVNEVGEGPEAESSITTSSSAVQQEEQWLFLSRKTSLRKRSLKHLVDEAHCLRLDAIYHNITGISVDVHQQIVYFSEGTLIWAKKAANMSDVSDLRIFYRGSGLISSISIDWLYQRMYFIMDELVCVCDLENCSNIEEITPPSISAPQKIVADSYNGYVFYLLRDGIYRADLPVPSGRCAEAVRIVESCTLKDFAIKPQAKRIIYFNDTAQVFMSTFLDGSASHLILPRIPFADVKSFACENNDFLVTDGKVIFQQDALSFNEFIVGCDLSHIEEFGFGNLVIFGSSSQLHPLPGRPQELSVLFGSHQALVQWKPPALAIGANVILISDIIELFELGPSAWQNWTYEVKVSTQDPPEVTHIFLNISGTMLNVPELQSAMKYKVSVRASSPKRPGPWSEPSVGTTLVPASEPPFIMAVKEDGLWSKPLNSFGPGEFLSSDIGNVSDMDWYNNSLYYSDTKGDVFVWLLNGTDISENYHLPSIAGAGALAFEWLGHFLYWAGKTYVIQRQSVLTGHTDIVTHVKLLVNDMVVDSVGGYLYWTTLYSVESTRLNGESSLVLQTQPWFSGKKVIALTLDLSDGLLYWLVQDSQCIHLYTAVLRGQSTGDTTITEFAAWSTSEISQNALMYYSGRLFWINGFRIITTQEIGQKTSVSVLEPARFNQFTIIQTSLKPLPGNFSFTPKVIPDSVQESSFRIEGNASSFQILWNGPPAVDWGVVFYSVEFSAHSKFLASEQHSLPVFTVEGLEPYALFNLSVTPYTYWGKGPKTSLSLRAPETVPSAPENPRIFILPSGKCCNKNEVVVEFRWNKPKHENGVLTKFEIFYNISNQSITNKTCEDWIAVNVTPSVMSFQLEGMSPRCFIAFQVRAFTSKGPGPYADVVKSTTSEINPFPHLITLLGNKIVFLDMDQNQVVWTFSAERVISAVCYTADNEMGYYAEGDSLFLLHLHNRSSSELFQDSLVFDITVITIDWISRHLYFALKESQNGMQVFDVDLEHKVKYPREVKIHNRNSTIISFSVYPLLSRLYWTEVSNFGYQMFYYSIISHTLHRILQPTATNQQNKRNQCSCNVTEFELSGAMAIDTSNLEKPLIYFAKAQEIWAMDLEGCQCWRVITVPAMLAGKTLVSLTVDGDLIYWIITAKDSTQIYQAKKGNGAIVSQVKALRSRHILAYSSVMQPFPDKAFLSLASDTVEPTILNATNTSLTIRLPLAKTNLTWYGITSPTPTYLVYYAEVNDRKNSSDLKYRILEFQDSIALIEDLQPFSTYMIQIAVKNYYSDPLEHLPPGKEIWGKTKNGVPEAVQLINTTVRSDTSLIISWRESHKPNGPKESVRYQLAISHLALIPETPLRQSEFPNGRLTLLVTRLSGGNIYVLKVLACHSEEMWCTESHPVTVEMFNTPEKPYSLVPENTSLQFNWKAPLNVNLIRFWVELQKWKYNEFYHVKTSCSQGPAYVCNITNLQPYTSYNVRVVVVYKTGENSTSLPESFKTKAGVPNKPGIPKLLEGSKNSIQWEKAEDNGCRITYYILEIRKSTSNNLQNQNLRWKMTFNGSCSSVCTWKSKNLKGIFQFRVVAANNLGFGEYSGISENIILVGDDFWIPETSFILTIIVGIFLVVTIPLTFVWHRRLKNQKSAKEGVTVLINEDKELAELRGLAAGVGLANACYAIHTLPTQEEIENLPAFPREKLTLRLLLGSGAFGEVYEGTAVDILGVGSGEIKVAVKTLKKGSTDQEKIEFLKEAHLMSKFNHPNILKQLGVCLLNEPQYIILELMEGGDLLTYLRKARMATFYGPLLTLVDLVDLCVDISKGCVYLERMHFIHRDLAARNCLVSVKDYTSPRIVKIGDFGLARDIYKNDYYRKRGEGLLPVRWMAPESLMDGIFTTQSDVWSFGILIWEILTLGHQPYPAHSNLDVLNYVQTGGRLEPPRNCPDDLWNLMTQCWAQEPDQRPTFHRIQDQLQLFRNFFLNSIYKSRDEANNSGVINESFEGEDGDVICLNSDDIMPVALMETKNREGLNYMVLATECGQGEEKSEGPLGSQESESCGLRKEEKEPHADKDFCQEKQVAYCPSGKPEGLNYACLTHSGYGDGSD
Experimental: as §1

[8] = target: SRC (Homo sapiens, UniProt P12931); test: Kinase Selectivity Assay; format: biochemical; design: full-length enzymes or catalytically active fragments; purchased Invitrogen; details: read-out: Percent Inhibition at 1 μM
SRC, sequence (P12931 whole entry, the tested form may be a part): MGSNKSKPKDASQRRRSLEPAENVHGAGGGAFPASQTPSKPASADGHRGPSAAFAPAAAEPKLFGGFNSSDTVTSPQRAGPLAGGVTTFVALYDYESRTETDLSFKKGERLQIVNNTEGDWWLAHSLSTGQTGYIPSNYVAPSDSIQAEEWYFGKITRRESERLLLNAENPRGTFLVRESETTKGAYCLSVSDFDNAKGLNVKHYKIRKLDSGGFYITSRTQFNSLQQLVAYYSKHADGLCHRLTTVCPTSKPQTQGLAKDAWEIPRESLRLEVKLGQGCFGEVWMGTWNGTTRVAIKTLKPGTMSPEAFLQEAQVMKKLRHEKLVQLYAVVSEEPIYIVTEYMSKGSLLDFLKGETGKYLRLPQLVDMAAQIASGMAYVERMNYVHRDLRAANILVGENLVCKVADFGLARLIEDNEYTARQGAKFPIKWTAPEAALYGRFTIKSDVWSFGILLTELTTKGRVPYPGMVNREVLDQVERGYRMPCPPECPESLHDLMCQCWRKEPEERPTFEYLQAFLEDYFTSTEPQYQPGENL
Experimental: as §1

SMILES	inhibition at 100 µM [1] [%]	inhibition at 100 µM [2] [%]	inhibition at 100 µM [3] [%]	inhibition at 1 µM [4] [%]	inhibition at 1 µM [5] [%]	inhibition at 1 µM [6] [%]	inhibition at 1 µM [7] [%]	inhibition at 1 µM [8] [%]
Cc1cc(Nc2nc(/C=C/c3ccccc3)nc(N3CCN(C)CC3)c2N)[nH]n1 [Example 10, 6-(4-methylpiperazin-1-yl)-N-(3-methyl-1H-pyrazol-5-yl)-2-[(E)-2-phenylvinyl]pyrimidin-4,5-diamine]	100	97	99	53	93	23	54	85
Cc1cc(Nc2cc(N3CCN(C)CC3)nc(/C=C/c3ccccc3)n2)n[nH]1 [Example 31, 6-(4-methylpiperazin-1-yl)-N-(3-methyl-1H-pyrazol-5-yl)-2-[(E)-2-phenylvinyl]pyrimidin-4-amine]	100	100	99	86	98	3	65	96
